In US20190053492A1, “SUBSTITUTED PYRIDINE COMPOUNDS AS PESTICIDES” (Bayer CropScience Aktiengesellschaft, priority 2016, published 2019):
Like-named read-outs stand apart in the source and are kept apart here.

How the values were obtained:
Spodoptera frugiperda = Spodoptera frugiperda spray test; format: in vivo; details: after 7 days, maize leaf discs
In short: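 Efficacy in % was scored at 7 days against armyworm caterpillars placed on dried, compound-sprayed Zea mays leaf discs. Compound was dissolved in acetone/dimethylformamide and diluted in water with 1000 ppm alkylaryl polyglycol ether. 100% means all caterpillars were killed.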

[1] = log P by HPLC on reversed-phase column (C 18), EEC Directive 79/831 Annex V.A8; format: physicochemical; details: 55° C.; for LOGP_HCOOH: log P (HCOOH); for chromatographic logP: reversed-phase HPLC column (C 18)
Method: Temperature: 55° C. […] Called log P (HCOOH) in the table. […] Called log P (neutral) in the table.

Ctenocephalides felis = Ctenocephalides felis oral test; format: in vivo; details: application rate 100 ppm in citrated cattle blood, after 2 days, adult cat fleas
Method: Ctenocephalides felis—Oral Test Solvent: dimethyl sulphoxide To produce a suitable active ingredient formulation, 10 mg of active ingredient are mixed with 0.5 ml of dimethyl sulphoxide. Dilution with citrated cattle blood gives the desired concentration. About 20 unfed adult cat fleas (Ctenocephalides felis) are placed into a chamber which is closed at the top and bottom with gauze. A metal cylinder whose bottom end is closed with parafilm is placed onto the chamber. The cylinder contains the blood/active ingredient formulation, which can be imbibed by the fleas through the parafilm membrane. After 2 days, the kill in % is determined. 100% means that all of the fleas have been killed; 0% means that none of the fleas have been killed.

Phaedon cochleariae = Phaedon cochleariae spray test; format: in vivo; details: after 7 days, Chinese cabbage leaf discs
In short: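 Larval kill read at day 7 as percent, where 100% means every larva dead and 0% none; larvae were placed on dried Brassica pekinensis leaf discs previously sprayed with the formulation (acetone/dimethylformamide solvent, alkylaryl polyglycol ether emulsifier, water).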

Lucilia cuprina = Lucilia cuprina test; format: in vivo; details: application rate 100 ppm, after 2 days, L1 larvae
Method: Lucilia cuprina Test Solvent: dimethyl sulphoxide To produce a suitable active ingredient formulation, 10 mg of active ingredient are mixed with 0.5 ml of dimethyl sulphoxide, and the concentrate is diluted with water to the desired concentration. About 20 L1 larvae of the Australian sheep blowfly (Lucilia cuprina) are transferred into a test vessel containing minced horsemeat and the active ingredient formulation of the desired concentration. After 2 days, the kill in % is determined. 100% means that all the larvae have been killed; 0% means that no larvae have been killed.

[2] = acidic range at pH 2.7, 0.1% aqueous formic acid and acetonitrile, HPLC on reversed-phase column (C 18)
[3] = log P, neutral range, HPLC on reversed-phase column (C 18)
[4] = acidic range pH 2.7, 0.1% aqueous formic acid and acetonitrile, reversed-phase column (C 18)

N#Cc1ccc(CNC(=O)c2cc(-c3ccc(C(F)(F)F)c(F)c3)cc(NC(=O)C3CC3)n2)cc1 [Example I-224]
efficacy (caterpillars killed) (Spodoptera frugiperda; application rate 100 g/ha): 100%
efficacy (caterpillars killed) (Spodoptera frugiperda; application rate 500 g/ha): 100%
LOGP_HCOOH [1, 2]: 3.86
LOGP_NEUTRAL [1, 3]: 3.82
efficacy (kill in %) (Ctenocephalides felis): 100%
efficacy (beetle larvae killed) (Phaedon cochleariae; application rate 100 g/ha): 100%
efficacy (beetle larvae killed) (Phaedon cochleariae; application rate 500 g/ha): 100%
efficacy (kill in %) (Lucilia cuprina): 100%

O=C(NC1COC1)c1cc(-c2ccc(OC(F)(F)F)cc2)cc(NC(=O)C2CC2)n1 [Example I-117]
efficacy (caterpillars killed) (Spodoptera frugiperda; application rate 100 g/ha): 100%
efficacy (caterpillars killed) (Spodoptera frugiperda; application rate 500 g/ha): 100%
LOGP_HCOOH [1, 2]: 3.07
LOGP_NEUTRAL [1, 3]: 2.95
efficacy (kill in %) (Ctenocephalides felis): 100%
efficacy (beetle larvae killed) (Phaedon cochleariae; application rate 500 g/ha): 100%
efficacy (kill in %) (Lucilia cuprina): 95%

O=C(NCc1ccc(C(F)(F)F)cc1)c1cc(-c2ccc(C(F)(F)F)cc2)cc(NC(=O)C2CC2)n1 [Example I-027]
efficacy (caterpillars killed) (Spodoptera frugiperda; application rate 100 g/ha): 100%
efficacy (caterpillars killed) (Spodoptera frugiperda; application rate 500 g/ha): 100%
LOGP_HCOOH [1, 4]: 4.62
LOGP_NEUTRAL [1, 3]: 4.50
efficacy (kill in %) (Ctenocephalides felis): 100%
efficacy (beetle larvae killed) (Phaedon cochleariae; application rate 100 g/ha): 100%
efficacy (beetle larvae killed) (Phaedon cochleariae; application rate 500 g/ha): 100%
efficacy (kill in %) (Lucilia cuprina): 90%

CCC(=O)Nc1cc(-c2ccc(C(F)(F)F)cc2)cc(C(=O)NCc2ccc(C#N)cc2)n1 [Example I-048]
efficacy (caterpillars killed) (Spodoptera frugiperda; application rate 100 g/ha): 83%
efficacy (caterpillars killed) (Spodoptera frugiperda; application rate 500 g/ha): 100%
LOGP_HCOOH [1, 4]: 4.59
LOGP_NEUTRAL [1, 3]: 3.47
efficacy (beetle larvae killed) (Phaedon cochleariae; application rate 500 g/ha): 100%
efficacy (kill in %) (Lucilia cuprina): 100%

O=C(NCc1ccc(Cl)cc1)c1cc(-c2ccc(C(F)(F)F)cc2)cc(NC(=O)C2CC2)n1 [Example I-008]
efficacy (caterpillars killed) (Spodoptera frugiperda; application rate 100 g/ha): 100%
efficacy (caterpillars killed) (Spodoptera frugiperda; application rate 500 g/ha): 100%
LOGP_HCOOH [1, 4]: 4.48
LOGP_NEUTRAL [1, 3]: 4.34
efficacy (kill in %) (Ctenocephalides felis): 100%
efficacy (kill in %) (Lucilia cuprina): 95%

N#Cc1ccc(CNC(=O)c2cc(-c3ccc(SC4CC4)cc3)cc(NC(=O)C3CC3)n2)cc1 [Example I-142]
LOGP_HCOOH [1, 2]: 4.07
LOGP_NEUTRAL [1, 3]: 3.86
efficacy (kill in %) (Ctenocephalides felis): 100%
efficacy (beetle larvae killed) (Phaedon cochleariae; application rate 100 g/ha): 100%
efficacy (beetle larvae killed) (Phaedon cochleariae; application rate 500 g/ha): 100%
efficacy (kill in %) (Lucilia cuprina): 90%

O=C(Nc1ccc(Cl)cc1)c1cc(-c2ccc(C(F)(F)F)cc2)cc(NC(=O)C2CC2)n1 [Example I-021]
efficacy (caterpillars killed) (Spodoptera frugiperda; application rate 500 g/ha): 100%
LOGP_HCOOH [1, 4]: 4.96
LOGP_NEUTRAL [1, 3]: 5.08
efficacy (beetle larvae killed) (Phaedon cochleariae; application rate 500 g/ha): 100%
efficacy (kill in %) (Lucilia cuprina): 85%

N#Cc1ccc(CNC(=O)c2cc(-c3ccc(OC(F)(F)F)cc3)cc(NC(=O)C3CC3)n2)cn1 [Example I-051]
efficacy (caterpillars killed) (Spodoptera frugiperda; application rate 100 g/ha): 100%
efficacy (caterpillars killed) (Spodoptera frugiperda; application rate 500 g/ha): 100%
LOGP_HCOOH [1, 4]: 3.49
LOGP_NEUTRAL [1, 3]: 3.37
efficacy (kill in %) (Ctenocephalides felis): 100%
efficacy (beetle larvae killed) (Phaedon cochleariae; application rate 100 g/ha): 100%
efficacy (beetle larvae killed) (Phaedon cochleariae; application rate 500 g/ha): 100%

COC(=O)N(C(=O)C1CC1)c1cc(-c2ccc(OC(F)(F)F)cc2)cc(C(=O)NCc2ccc(C#N)cc2)n1 [Example I-233, Methyl {6-[(4-cyanobenzyl)carbamoyl]-4-[4-(trifluoromethoxy)phenyl]pyridin-2-yl}(cyclopropylcarbonyl)carbamate]
pest or weed control at 100 g/ha (Spodoptera frugiperda; Spodoptera frugiperda, foliar, 168 h, application rate 100 g/ha, read-out: efficacy (caterpillars killed)): 100%
pest or weed control at 500 g/ha (Spodoptera frugiperda; Spodoptera frugiperda, foliar, 168 h, application rate 500 g/ha, read-out: efficacy (caterpillars killed)): 100%
LOGP_HCOOH [1, 4]: 3.90
LOGP_NEUTRAL ([1]; log P (neutral), HPLC reversed-phase column (C 18)): 3.91
chromatographic logP ([1]; pH 2.7, LC-MS acidic range, pH 2.7, 0.1% formic acid/acetonitrile, read-out: log P (acidic) / log P (HCOOH)): 3.9
chromatographic logP ([1]; pH 7.8, LC-MS neutral range, pH 7.8, ammonium hydrogencarbonate/acetonitrile, read-out: log P (neutral)): 3.91
pest or weed control at 100 ppm (Ctenocephalides felis; Ctenocephalides felis, po, 48 h, read-out: efficacy (kill in %)): 100%
pest or weed control at 500 g/ha (Phaedon cochleariae; Phaedon cochleariae, foliar, 168 h, application rate 500 g/ha, read-out: efficacy (beetle larvae killed)): 100%

CC(=O)Nc1cc(-c2ccc(C(F)(F)F)cc2)cc(C(=O)NCc2ccc(C#N)cc2)n1 [Example I-017]
efficacy (caterpillars killed) (Spodoptera frugiperda; application rate 500 g/ha): 100%
LOGP_HCOOH [1, 4]: 3.15
LOGP_NEUTRAL [1, 3]: 3.13
efficacy (kill in %) (Ctenocephalides felis): 98%
efficacy (beetle larvae killed) (Phaedon cochleariae; application rate 500 g/ha): 100%

O=C(NCc1ccc2c(c1)OC(F)(F)O2)c1cc(-c2ccc(OC(F)(F)F)cc2)cc(NC(=O)C2CC2)n1 [Example I-095]
efficacy (caterpillars killed) (Spodoptera frugiperda; application rate 500 g/ha): 100%
LOGP_HCOOH [1, 4]: 4.79
LOGP_NEUTRAL [1, 3]: 4.61
efficacy (kill in %) (Ctenocephalides felis): 95%
efficacy (beetle larvae killed) (Phaedon cochleariae; application rate 500 g/ha): 83%

N#CCNC(=O)c1cc(-c2ccc(OC(F)(F)F)cc2)cc(NC(=O)C2CC2)n1 [Example I-131]
efficacy (caterpillars killed) (Spodoptera frugiperda; application rate 100 g/ha): 100%
efficacy (caterpillars killed) (Spodoptera frugiperda; application rate 500 g/ha): 100%
LOGP_HCOOH [1, 2]: 3.15
efficacy (kill in %) (Ctenocephalides felis): 100%
efficacy (beetle larvae killed) (Phaedon cochleariae; application rate 500 g/ha): 100%

CC(C)C(=O)Nc1cc(-c2ccc(OC(F)(F)F)cc2)cc(C(=O)NC2(C#N)CC2)n1 [Example I-075]
efficacy (caterpillars killed) (Spodoptera frugiperda; application rate 500 g/ha): 100%
LOGP_HCOOH [1, 4]: 3.58
LOGP_NEUTRAL [1, 3]: 3.47
efficacy (kill in %) (Ctenocephalides felis): 100%
efficacy (beetle larvae killed) (Phaedon cochleariae; application rate 500 g/ha): 100%

N#CC1(NC(=O)c2cc(-c3ccc(OC(F)(F)F)cc3)cc(NC(=O)C3CC3)n2)CCC1 [Example I-109]
efficacy (caterpillars killed) (Spodoptera frugiperda; application rate 500 g/ha): 100%
LOGP_HCOOH [1, 4]: 3.78
LOGP_NEUTRAL [1, 3]: 3.68
efficacy (kill in %) (Ctenocephalides felis): 100%
efficacy (beetle larvae killed) (Phaedon cochleariae; application rate 500 g/ha): 100%

CC(C)C(=O)Nc1cc(-c2ccc(OC(F)(F)F)cc2)cc(C(=O)NCc2cc(F)c(C#N)cc2F)n1 [Example I-110]
efficacy (caterpillars killed) (Spodoptera frugiperda; application rate 100 g/ha): 100%
efficacy (caterpillars killed) (Spodoptera frugiperda; application rate 500 g/ha): 100%
LOGP_HCOOH [1, 2]: 4.33
LOGP_NEUTRAL [1, 3]: 4.19
efficacy (kill in %) (Ctenocephalides felis): 100%
efficacy (beetle larvae killed) (Phaedon cochleariae; application rate 100 g/ha): 100%
efficacy (beetle larvae killed) (Phaedon cochleariae; application rate 500 g/ha): 100%

O=C(NC1CCC1)c1cc(-c2ccc(OC(F)(F)F)cc2)cc(NC(=O)C2CC2)n1 [Example I-133]
efficacy (caterpillars killed) (Spodoptera frugiperda; application rate 100 g/ha): 100%
efficacy (caterpillars killed) (Spodoptera frugiperda; application rate 500 g/ha): 100%
LOGP_HCOOH [1, 2]: 4.00
efficacy (kill in %) (Ctenocephalides felis): 100%
efficacy (kill in %) (Lucilia cuprina): 100%

N#Cc1cccc(CNC(=O)c2cc(-c3ccc(C(F)(F)F)cc3)cc(NC(=O)C3CC3)n2)c1 [Example I-004]
efficacy (caterpillars killed) (Spodoptera frugiperda; application rate 500 g/ha): 100%
LOGP_HCOOH [1, 4]: 3.83
efficacy (kill in %) (Ctenocephalides felis): 100%
efficacy (beetle larvae killed) (Phaedon cochleariae; application rate 500 g/ha): 100%

O=C(NCc1ccccn1)c1cc(-c2ccc(OC(F)(F)F)cc2)cc(NC(=O)C2CC2)n1 [Example I-116]
efficacy (caterpillars killed) (Spodoptera frugiperda; application rate 500 g/ha): 100%
LOGP_HCOOH [1, 2]: 2.88
LOGP_NEUTRAL [1, 3]: 3.30
efficacy (kill in %) (Ctenocephalides felis): 100%
efficacy (beetle larvae killed) (Phaedon cochleariae; application rate 100 g/ha): 100%
efficacy (beetle larvae killed) (Phaedon cochleariae; application rate 500 g/ha): 100%
